Measured values taken from patent publication US20240197651A1, “DEXMECAMYLAMINE AND USES THEREOF” (Atacama Therapeutics, Inc., priority 2021, published 2024).

Legend:
Assay type in all cases: in vivo
patients with seborrhea = test: Treatment of seborrhea
Procedure: The compound of the disclosure (e.g., dexmecamylamine substantially free of exo-R-mecamylamine) is administered to patients with seborrhea. […] In some embodiments, the subject produces sebum in an amount of 100 μg/cm^2 and above (e.g., 125, 135, 150, 175, 200 μg/cm^2 or higher).

patients with oily skin = test: Treatment of oily skin
Procedure: The compound of the disclosure (e.g., dexmecamylamine substantially free of exo-R-mecamylamine) is administered to patients with oily skin. […] In some embodiments, the subject produces sebum in an amount of 100 μg/cm^2 and above (e.g., 125, 135, 150, 175, 200 μg/cm^2 or higher).

[1] = test system: human subjects with hyperhidrosis and oily skin; test: Phase II clinical study, facial sebum production; conditions: for Average response category at 2 weeks: change in percent of average facial sebum quantity at end of 2-week treatment vs baseline; for Average response category at 4 weeks: change in percent of average facial sebum quantity at end of 4-week treatment vs baseline; for Responders (%): subjects with 20% or greater reduction in sebum quantity following treatment
From the text: Acne vulgaris is a dermatological condition characterized by increased sebum production, which is driven, in part, by cholinergic signaling within the sympathetic nervous system. Activation of nicotinic receptors on human sebaceous glands is known to increase sebum production and secretion. Dexmecamylamine acts on nicotinic acetylcholine receptors to reduce sympathetic tone through the selective inhibition of presynaptic nicotinic receptors in the sympathetic ganglia. In order to determine the therapeutic efficacy of dexmecamylamine in the treatment of acne and related conditions, the inventors leveraged a Phase II clinical study in 15 human subjects with hyperhidrosis and oily skin (i.e., sebum production of 100 μg/cm^2 or greater (e.g., 125, 135, 150, 175, 200 μg/cm^2 or higher)) that were treated with dexmecamylamine hydrochloride. […] [table]

patients with acne = test: Treatment of acne
Procedure: The compound of the disclosure (e.g., dexmecamylamine substantially free of exo-R-mecamylamine or pharmaceutically acceptable salt thereof) is administered to patients with acne. […] In some embodiments, the compound is dexmecamylamine substantially free of exo-R-mecamylamine, or a pharmaceutically acceptable salt thereof. In some embodiments, the subject produces sebum in an amount of 100 μg/cm^2 and above (e.g., 125, 135, 150, 175, 200 μg/cm^2 or higher). In particular, 4 mg of dexmecamylamine hydrochloride is administered orally twice a day to a subject. Subjects have oily skin (>100 μg/cm^2) as measured on three locations of the face by a Sebumeter® grease spot photometry device and has facial acne vulgaris (including the nose). Efficacy is determined by a comparison of sebum as an absolute change from baseline at 12 weeks. Other measures of efficacy include the absolute change from baseline in inflammatory and non-inflammatory lesion counts at 8 weeks and the percent change from baseline in lesion counts (inflammatory and noninflammatory) at weeks 8 and 12. […] The assessment may include the quantity of lesions, size of lesions, intensity of inflammation, and location of lesions to consider the quality and quantity of lesions.

[2] = test system: patients with sebaceous hyperplasia; test: Treatment of sebaceous hyperplasia
Procedure: The compound of the disclosure (e.g., dexmecamylamine substantially free of exo-R-mecamylamine) is administered to patients with sebaceous hyperplasia. […] In some embodiments, the subject produces sebum in an amount of 100 μg/cm^2 and above (e.g., 125, 135, 150, 175, 200 μg/cm^2 or higher).

[3] = test system: patients with sebaceous carcinoma; test: Treatment of sebaceous carcinoma
Procedure: The compound of the disclosure (e.g., dexmecamylamine substantially free of exo-R-mecamylamine) is administered to patients with sebaceous carcinoma. […] In some embodiments, the subject produces sebum in an amount of 100 μg/cm^2 and above (e.g., 125, 135, 150, 175, 200 μg/cm^2 or higher).

[4] = test system: patients with sebaceous cyst; test: Treatment of sebaceous cyst
Procedure: The compound of the disclosure (e.g., dexmecamylamine substantially free of exo-R-mecamylamine) is administered to patients with sebaceous cyst. […] In some embodiments, the subject produces sebum in an amount of 100 μg/cm^2 and above (e.g., 125, 135, 150, 175, 200 μg/cm^2 or higher).

[5] = test system: patients with hidradenitis suppurativa; test: Treatment of hidradenitis suppurativa
Procedure: The compound of the disclosure (e.g., dexmecamylamine substantially free of exo-R-mecamylamine) is administered to patients with hidradenitis suppurativa. […] In some embodiments, the subject produces sebum in an amount of 100 μg/cm^2 and above (e.g., 125, 135, 150, 175, 200 μg/cm^2 or higher). In particular, 4 mg of dexmecamylamine hydrochloride is administered orally twice a day to a subject with hidradenitis suppurativa. Efficacy is measured by a change in pain, as measured using a 10-point numerical rating scale, 1 through 10, with 10 being the worst, from baseline to week 12; a change in quality of life using Dermatology Life Quality Index (DLQI) from baseline to week 12; a change in clinical status using the Hurley Staging from baseline to week 12; a change in clinical status using the International Hidradenitis Suppurative Severity Score System (IHS4) from baseline to week 12; a change in clinical status using the Hidradenitis Suppurative Clinical Response (HiSCR) from baseline to week 12; a change in clinical status using the Hidradenitis Suppurative Physician Global Assessment (HS-PGA) from baseline to week 12; a change in clinical status using the Hidradenitis Suppurative Area and Severity Index-Revised (HASI-R) from baseline to week 12; and/or a change in the absolute number of abscesses and inflammatory nodules.

patients with wrinkles = test: Treatment of wrinkles
Procedure: The compound of the disclosure (e.g., dexmecamylamine substantially free of exo-R-mecamylamine) is administered to patients with wrinkles. […] In some embodiments, the subject produces sebum in an amount of 100 μg/cm^2 and above (e.g., 125, 135, 150, 175, 200 μg/cm^2 or higher).

[6] = test system: patients with sebaceous adenoma; test: Treatment of sebaceous adenoma
Procedure: The compound of the disclosure (e.g., dexmecamylamine substantially free of exo-R-mecamylamine) is administered to patients with sebaceous adenoma. […] In some embodiments, the subject produces sebum in an amount of 100 μg/cm^2 and above (e.g., 125, 135, 150, 175, 200 μg/cm^2 or higher).

[7] = test system: patients with seborrheic dermatitis; test: Treatment of seborrheic dermatitis
Procedure: The compound of the disclosure (e.g., dexmecamylamine substantially free of exo-R-mecamylamine) is administered to patients with seborrheic dermatitis. […] In some embodiments, the subject produces sebum in an amount of 100 μg/cm^2 and above (e.g., 125, 135, 150, 175, 200 μg/cm^2 or higher).

[8] = test system: patients with enlarged pores; test: Treatment of enlarged pores
Procedure: The compound of the disclosure (e.g., dexmecamylamine substantially free of exo-R-mecamylamine) is administered to patients with enlarged pores. […] In some embodiments, the compound is dexmecamylamine substantially free of exo-R-mecamylamine, or a pharmaceutically acceptable salt thereof. In some embodiments, the subject produces sebum in an amount of 100 μg/cm^2 and above (e.g., 125, 135, 150, 175, 200 μg/cm^2 or higher).

With `CN[C@@]1(C)[C@@H]2CC[C@@H](C2)C1(C)C` [dexmecamylamine] as the molecule, how does the “symptoms, seborrhea” value (patients with seborrhea) read?
The value was “improved symptoms”.

And the “symptoms, oil production by the skin” value (patients with oily skin)?
Its value is “improved symptoms”.

What about the “Average response category at 2 weeks” value ([1]; 2 mg BID) of the same molecule?
The value was “Low (Reduction in sebum production of less than 20%.)”.

And the “Average response category at 4 weeks” value ([1]; 2 mg BID)?
Its value is “Medium^†† (Reduction in sebum production between 20% and 35%.)”.

And the “Responders (%)” value ([1]; 2 mg BID)?
Its value is 80%.

What about the facial sebum production ([1]; 2 mg or 4 mg BID, four weeks of treatment) of the same molecule?
Its facial sebum production is “reduction in facial sebum production”.

And the “Average response category at 2 weeks” value ([1]; 4 mg BID)?
The value was “Low (Reduction in sebum production of less than 20%.)”.

What about the “Average response category at 4 weeks” value ([1]; 4 mg BID) of the same molecule?
The value was “High^††† (Reduction in sebum production of greater than 35%.)”.

What about the “Responders (%)” value ([1]; 4 mg BID) of the same molecule?
Its value is 100%.

And the “symptoms of acne (whiteheads, blackheads, papules, pimples, nodules, cysts)” value (patients with acne)?
The value was “improved symptoms”.

And the “symptoms, sebaceous hyperplasia” value [2]?
Its value is “improved symptoms”.

And the “symptoms, sebaceous carcinoma” value [3]?
Its value is “improved symptoms”.

What about the “symptoms, sebaceous cyst” value [4] of the same molecule?
The value was “improved symptoms”.

What about the “symptoms, hidradenitis suppurativa” value [5] of the same molecule?
The value was “improved symptoms”.

And the “symptoms, wrinkles” value (patients with wrinkles)?
Its value is “improved symptoms”.

And the “symptoms, sebaceous adenoma” value [6]?
Its value is “improved symptoms”.

What about the “symptoms, seborrheic dermatitis” value [7] of the same molecule?
The value was “improved symptoms”.

What about the “symptoms, enlarged pores” value [8] of the same molecule?
Its value is “improved symptoms”.
